Measurements from patent US20090299066A1, “TRIAZOLONE DERIVATIVES AS MMP INHIBITORS FOR THE TREATMENT OF ASTHMA AND COPD” (priority 2004, published 2009).

Key:
Type in all cases: biochemical
Human MMP14 = molecular target: T1, Human MMP14 (Homo sapiens, UniProt P50281); assay: Isolated enzyme assay, MMP14
T1 construct: made in house
From the text: (§1) A protocol for testing against other matrix metalloproteinases, including MMP9, using expressed and purified pro MMP is described, for instance, by C. Graham Knight et al., (1992) FEBS Lett. 296(3):263-266.

Human MMP12 = molecular target: T2, Human MMP12 (Homo sapiens, UniProt P39900); assay: Isolated enzyme assay, MMP12 catalytic domain, fluorogenic substrate; conditions: recombinant human MMP12 catalytic domain
T2 construct: Recombinant human MMP12 catalytic domain may be expressed and purified as described by Parkar A. A. et al; made in house
T2 sequence (P39900 106-263 limits assumed): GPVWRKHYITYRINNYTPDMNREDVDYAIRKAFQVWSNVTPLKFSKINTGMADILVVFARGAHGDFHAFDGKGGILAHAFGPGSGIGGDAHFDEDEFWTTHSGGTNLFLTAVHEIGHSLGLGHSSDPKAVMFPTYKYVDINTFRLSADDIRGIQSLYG
Procedure: Recombinant human MMP12 catalytic domain may be expressed and purified as described by Parkar A. A. et al, (2000), Protein Expression and Purification, 20:152. The purified enzyme can be used to monitor inhibitors of activity as follows: MMP12 (50 ng/ml final concentration) is incubated for 60 minutes at room temperature with the synthetic substrate Mac-Pro-Cha-Gly-Nva-His-Ala-Dpa-NH2 in assay buffer (0.1M “Tris-HCl” (trade mark) buffer, pH 7.3 containing 0.1M NaCl, 20 mM CaCl2, 0.020 mM ZnCl and 0.05% (w/v) “Brij 35” (trade mark) detergent) in the presence (5 concentrations) or absence of inhibitors. Activity is determined by measuring the fluorescence at λex 320 nm and λem 405 nm. Percent inhibition is calculated as follows: % Inhibition is equal to the […].

Human MMP9 = molecular target: T3, Human MMP9 (Homo sapiens, UniProt P14780); assay: Isolated enzyme assay, MMP9
T3 construct: made in house
T3 sequence (P14780 94-707): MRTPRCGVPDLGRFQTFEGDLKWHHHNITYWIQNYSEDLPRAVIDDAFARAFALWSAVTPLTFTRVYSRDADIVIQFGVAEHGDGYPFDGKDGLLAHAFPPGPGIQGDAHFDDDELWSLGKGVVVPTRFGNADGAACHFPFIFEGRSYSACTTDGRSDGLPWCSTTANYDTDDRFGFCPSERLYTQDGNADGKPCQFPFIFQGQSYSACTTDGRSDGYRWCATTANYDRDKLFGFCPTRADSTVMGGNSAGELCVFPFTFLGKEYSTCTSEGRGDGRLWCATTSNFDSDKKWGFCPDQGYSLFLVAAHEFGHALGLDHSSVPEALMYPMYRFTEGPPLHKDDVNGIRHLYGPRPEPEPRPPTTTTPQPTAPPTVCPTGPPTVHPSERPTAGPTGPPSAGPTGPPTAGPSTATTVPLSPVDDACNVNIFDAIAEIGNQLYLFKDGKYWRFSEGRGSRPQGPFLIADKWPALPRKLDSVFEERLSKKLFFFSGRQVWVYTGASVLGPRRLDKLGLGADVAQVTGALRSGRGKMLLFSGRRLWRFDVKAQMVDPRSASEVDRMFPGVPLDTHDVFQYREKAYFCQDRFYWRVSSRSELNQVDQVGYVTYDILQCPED
From the text: as §1

Human MMP2 = molecular target: T4, Human MMP2 (Homo sapiens, UniProt P08253); assay: Isolated enzyme assay, MMP2
T4 construct: made in house
T4 sequence (P08253 110-660): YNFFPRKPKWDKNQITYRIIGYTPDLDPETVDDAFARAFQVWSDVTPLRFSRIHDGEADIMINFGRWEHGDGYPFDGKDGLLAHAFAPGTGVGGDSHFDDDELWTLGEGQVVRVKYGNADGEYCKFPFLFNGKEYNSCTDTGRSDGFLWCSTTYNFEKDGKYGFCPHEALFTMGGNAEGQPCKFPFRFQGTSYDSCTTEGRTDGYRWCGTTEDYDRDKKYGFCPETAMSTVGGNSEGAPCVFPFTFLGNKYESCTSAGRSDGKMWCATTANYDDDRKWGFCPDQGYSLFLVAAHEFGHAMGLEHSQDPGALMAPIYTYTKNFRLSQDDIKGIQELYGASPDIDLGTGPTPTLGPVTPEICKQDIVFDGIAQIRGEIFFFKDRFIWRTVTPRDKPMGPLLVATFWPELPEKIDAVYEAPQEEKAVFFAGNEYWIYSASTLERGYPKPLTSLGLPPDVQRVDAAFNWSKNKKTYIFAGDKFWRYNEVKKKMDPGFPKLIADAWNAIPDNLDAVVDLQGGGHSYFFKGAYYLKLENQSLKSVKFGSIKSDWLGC
From the text: as §1

Human MMP8 = molecular target: T5, Human MMP8 (Homo sapiens, UniProt P22894); assay: Isolated enzyme assay, MMP8
T5 construct: made in house
T5 sequence (P22894 101-467): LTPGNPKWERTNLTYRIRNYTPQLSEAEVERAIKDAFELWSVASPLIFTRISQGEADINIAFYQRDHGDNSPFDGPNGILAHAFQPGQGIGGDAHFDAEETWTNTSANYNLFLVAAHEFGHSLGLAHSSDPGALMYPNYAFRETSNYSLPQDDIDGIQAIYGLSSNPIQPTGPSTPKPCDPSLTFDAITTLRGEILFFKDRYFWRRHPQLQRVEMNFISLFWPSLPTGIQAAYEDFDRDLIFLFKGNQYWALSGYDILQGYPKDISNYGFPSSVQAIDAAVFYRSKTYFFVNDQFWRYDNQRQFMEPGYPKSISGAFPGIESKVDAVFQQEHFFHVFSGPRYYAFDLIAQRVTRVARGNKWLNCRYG
From the text: as §1

Human MMP19 = molecular target: T6, Human MMP19 (Homo sapiens, UniProt Q99542); assay: Isolated enzyme assay, MMP19
T6 construct: made in house
T6 sequence (Q99542 98-508): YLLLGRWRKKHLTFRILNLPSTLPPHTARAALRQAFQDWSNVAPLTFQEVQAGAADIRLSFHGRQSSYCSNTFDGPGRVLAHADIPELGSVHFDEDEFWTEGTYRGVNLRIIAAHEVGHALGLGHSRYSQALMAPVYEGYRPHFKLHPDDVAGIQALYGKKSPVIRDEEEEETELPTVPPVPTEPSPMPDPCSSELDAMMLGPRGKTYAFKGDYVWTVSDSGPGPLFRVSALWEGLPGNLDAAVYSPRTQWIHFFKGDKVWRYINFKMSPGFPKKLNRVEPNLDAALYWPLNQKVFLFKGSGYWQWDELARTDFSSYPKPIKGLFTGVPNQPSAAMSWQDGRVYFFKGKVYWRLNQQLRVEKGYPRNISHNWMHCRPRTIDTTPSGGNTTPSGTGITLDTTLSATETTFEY
From the text: as §1

Compound | IC50 (Human MMP14) [µM] | IC50 (Human MMP12) [nM] | IC50 (Human MMP9) [nM] | IC50 (Human MMP2) [nM] | IC50 (Human MMP8) [nM] | IC50 (Human MMP19) [nM]
O=c1[nH]nc(CCS(=O)(=O)N2CCC(Oc3ccc(Cl)cn3)CC2)[nH]1 [Example 2, 5-[2-({4-[(5-Chloropyridin-2-yl)oxy]piperidin-1-yl}sulfonyl)ethyl]-2,4-dihydro-3H-1,2,4-triazol-3-one] | 6.66 | 65 | 318 | 1010 | 243 | –
O=c1[nH]nc(CS(=O)(=O)N2CCN(c3ccc(Cl)cc3)CC2)[nH]1 [Example 4, 5-({[4-(4-Chlorophenyl)piperazin-1-yl]sulfonyl}methyl)-2,4-dihydro-3H-1,2,4-triazol-3-one] | 1.75 | 18 | 414 | 142 | 31 | 64
O=c1[nH]nc(CS(=O)(=O)N2CC=C(C#Cc3cnc(C(F)(F)F)nc3)CC2)[nH]1 [Example 6, 5-({[4-{[2-(Trifluoromethyl)pyrimidin-5-yl]ethynyl}-3,6-dihydropyridin-1(2H)-yl]sulfonyl}methyl)-2,4-dihydro-3H-1,2,4-triazol-3-one] | 6.85 | 2.4 | 5.7 | 263 | 284 | 4300
